Data from ChEMBL document CHEMBL5137070, “N-2-(Phenylamino) Benzamide Derivatives as Dual Inhibitors of COX-2 and Topo I Deter Gastrointestinal Cancers via Targeting Inflammation and Tumor Progression” (J Med Chem, 2022).
Active and inactive are the calls of the source.

Legend:
HGC-27 [1] = assay: Effect on cell morphology in human HGC-27 cells assessed as lose of adherence at 10 uM incubated for 48 hrs by giemsa staining based microscopic analysis; format: functional
RAW264.7 [2] = assay: Antiinflammatory activity in mouse RAW264.7 cells assessed as reduction in LPS-induced COX-2 expression at 6.6 uM incubated for 1 hrs followed by LPS stimulation and measured after 24 hrs by western blot analysis; format: functional, cell-based; conditions: time 25.0 hrs
RKO [3] = assay: Anti-migration activity against human RKO cells assessed as inhibition of cell migration at 0.37 uM and measured after 24 hrs by wound healing assay; format: functional, cell-based
RAW264.7 [4] = assay: Antiinflammatory activity in mouse RAW264.7 cells assessed as reduction in LPS-induced NF-kappaB nuclear translocation at 6.6 uM incubated for 1 hrs followed by LPS stimulation for 1 hrs by DAPI staining based immunofluorescence assay; format: functional, cell-based; conditions: time 2.0 hrs
[5] = Toxicity in BALB/c mouse xenografted with mouse CT26.WT assessed as pathological changes in kidney at 100 mg/kg, ip twice daily and measured after 14 days by hematoxylin and eosin staining based microscopic analysis; format: organism-based; conditions: in vivo, 336 h, time 14 day
RKO [6] = assay: Induction of apoptosis in human RKO cells assessed as increase in caspase-3 activity at 1.1 uM incubated for 36 hrs by flow cytometry (Rvb= 1.08%); format: functional
HGC-27 [7] = assay: Induction of apoptosis in human HGC-27 cells assessed as increase in caspase-3 activity at 1.1 to 10 uM incubated for 36 hrs by flow cytometry; format: functional, cell-based; conditions: dose 1.1-10 µM, DDE = dose-dependent effect
HGC-27 [8] = assay: Effect on cell morphology in human HGC-27 cells assessed as condensed morphology at 10 uM incubated for 48 hrs by giemsa staining based microscopic analysis; format: functional
[9] = target: Nuclear factor NF-kappa-B complex (Homo sapiens) (UniProt Q00653+P19838+Q04206); assay: Inhibition of NF-kappaB activation in human HT-29 cells assessed as reduction in TNFalpha-stimulated NF-kappaB nuclear translocation at 10 uM for 24 hrs followed by TNF- alpha stimulation for 1 hrs by DAPI staining based immunofluorescence assay; format: cell-based; conditions: time 25.0 hrs
CT26.WT [10] = assay: Anti-tumor activity against mouse CT26.WT xenografted in BALB/c mouse assessed as increase in cleaved caspase-3 expression level at 100 mg/kg, ip twice daily and measured after 14 days by immunohistochemical analysis; format: functional, organism-based; conditions: time 14.0 day
[11] = target: T1, DNA topoisomerase 1 (Homo sapiens) (UniProt P11387); assay: Inhibition of human topoisomerase I assessed as DNA unwinding using DNA pBR322 as substrate at 2 uM incubated for 30 mins by ethidium bromide staining based agarose gel electrophoresis
T1 sequence (whole entry): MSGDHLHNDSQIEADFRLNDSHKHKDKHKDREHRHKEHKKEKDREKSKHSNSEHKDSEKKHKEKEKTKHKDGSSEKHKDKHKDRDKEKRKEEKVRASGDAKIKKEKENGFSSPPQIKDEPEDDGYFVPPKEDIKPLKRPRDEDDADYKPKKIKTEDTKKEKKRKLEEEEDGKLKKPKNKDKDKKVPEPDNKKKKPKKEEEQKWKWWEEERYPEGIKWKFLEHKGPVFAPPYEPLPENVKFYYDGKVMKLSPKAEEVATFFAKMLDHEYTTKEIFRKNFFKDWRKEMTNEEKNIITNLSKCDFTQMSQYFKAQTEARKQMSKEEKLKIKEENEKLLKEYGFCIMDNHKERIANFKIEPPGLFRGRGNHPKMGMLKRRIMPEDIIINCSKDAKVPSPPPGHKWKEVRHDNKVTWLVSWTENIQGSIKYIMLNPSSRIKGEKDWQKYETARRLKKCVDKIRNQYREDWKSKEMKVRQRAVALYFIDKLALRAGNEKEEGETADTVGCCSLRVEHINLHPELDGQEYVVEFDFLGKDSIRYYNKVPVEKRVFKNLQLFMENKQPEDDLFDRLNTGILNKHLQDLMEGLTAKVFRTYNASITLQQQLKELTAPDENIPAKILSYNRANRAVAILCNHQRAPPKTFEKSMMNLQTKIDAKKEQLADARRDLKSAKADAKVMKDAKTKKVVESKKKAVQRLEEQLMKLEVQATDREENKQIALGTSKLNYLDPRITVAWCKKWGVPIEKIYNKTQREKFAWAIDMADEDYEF

[12] = Toxicity in BALB/c mouse xenografted with mouse CT26.WT assessed as change in body weight at 100 mg/kg, ip twice daily and measured upto 14 days relative to control; format: organism-based; conditions: in vivo, 336 h, time < 14 day
[13] = Acute toxicity in Kunming mouse assessed as mortality at 100 mg/kg,ip and measured upto 14 days; format: organism-based; conditions: in vivo, 336 h, time < 14 day
RKO [14] = assay: Induction of mitochondrial membrane loss in human RKO at 1.1 to 10 uM and measured after 36 hrs by TMRE dye based flow cytometry; format: functional, cell-based; conditions: dose 1.1-10 µM, DDE = dose-dependent effect
RKO [15] = assay: Anti-metastasis activity against human RKO cells assessed as reduction in MMP-9 expression level at 3.3 to 10 uM for 24 hrs by western blot analysis; format: functional, cell-based; conditions: dose 3.3-10 µM
RKO [16] = assay: Anti-migration activity against human RKO cells assessed as decrease in cell migration rate at 0.37 uM for 48 hrs by crystalline violet staining based assay; format: functional
DNA topoisomerase 1 = target: T2, DNA topoisomerase 1 (Homo sapiens, UniProt P11387); assay: Inhibition of human topoisomerase I assessed as DNA relaxation using DNA pBR322 as substrate incubated for 30 mins by ethidium bromide staining based agarose gel electrophoresis
T2 sequence (P11387 whole entry): T1 sequence (whole entry)

HGC-27 [17] = assay: Antiproliferative activity against human HGC-27 cells assessed as cell viability at <= 0.41 uM for 48 hrs by MTT assay; format: functional; conditions: up to 0.41 µM
HGC-27 [18] = assay: Anti-metastasis activity against human HGC-27 cells assessed as reduction in MMP-9 expression level at 3.3 to 10 uM for 24 hrs by western blot analysis; format: functional, cell-based; conditions: dose 3.3-10 µM
RKO [19] = assay: Antiproliferative activity against human RKO cells assessed as clone formation at 0.04 to 3.3 uM incubated for 4 days by crystal violet staining based analysis; format: functional, cell-based; conditions: dose 0.04-3.3 µM, time 4.0 day
CT26.WT [20] = assay: Anti-tumor activity against mouse CT26.WT xenografted in BALB/c mouse assessed as decrease in COX-2 expression level in tumor tissue at 100 mg/kg, ip twice daily and measured after 14 days by immunohistochemical analysis; format: functional, organism-based; conditions: time 14.0 day
RKO [21] = assay: Effect on cell morphology in human RKO cells assessed as lose of adherence at 10 uM incubated for 48 hrs by giemsa staining based microscopic analysis; format: functional
CT26.WT [22] = assay: Anti-tumor activity against mouse CT26.WT xenografted in BALB/c mouse assessed as decrease in tumor weight at 100 mg/kg, ip twice daily and measured upto 14 days relative to control; format: functional, organism-based; conditions: time <= 14.0 day
HGC-27 [23] = assay: Antiproliferative activity against human HGC-27 cells assessed as reduction in cell proliferation incubated for 48 hrs by MTT assay; format: functional, cell-based; conditions: HGC-27, 48 h
HGC-27 [24] = assay: Induction of apoptosis in human HGC-27 cells assessed as increase in cytochrome C level at 1.1 to 10 uM incubated for 24 hrs by western blot assay; format: functional, cell-based; conditions: dose 1.1-10 µM
RKO [25] = assay: Induction of apoptosis in human RKO cells assessed as increase in caspase-3 activity at 3.3 uM incubated for 36 hrs by flow cytometry (Rvb= 1.08%); format: functional

Nuclear factor NF-kappa-B complex (Homo sapiens), sequence (P19838 whole entry, looked up): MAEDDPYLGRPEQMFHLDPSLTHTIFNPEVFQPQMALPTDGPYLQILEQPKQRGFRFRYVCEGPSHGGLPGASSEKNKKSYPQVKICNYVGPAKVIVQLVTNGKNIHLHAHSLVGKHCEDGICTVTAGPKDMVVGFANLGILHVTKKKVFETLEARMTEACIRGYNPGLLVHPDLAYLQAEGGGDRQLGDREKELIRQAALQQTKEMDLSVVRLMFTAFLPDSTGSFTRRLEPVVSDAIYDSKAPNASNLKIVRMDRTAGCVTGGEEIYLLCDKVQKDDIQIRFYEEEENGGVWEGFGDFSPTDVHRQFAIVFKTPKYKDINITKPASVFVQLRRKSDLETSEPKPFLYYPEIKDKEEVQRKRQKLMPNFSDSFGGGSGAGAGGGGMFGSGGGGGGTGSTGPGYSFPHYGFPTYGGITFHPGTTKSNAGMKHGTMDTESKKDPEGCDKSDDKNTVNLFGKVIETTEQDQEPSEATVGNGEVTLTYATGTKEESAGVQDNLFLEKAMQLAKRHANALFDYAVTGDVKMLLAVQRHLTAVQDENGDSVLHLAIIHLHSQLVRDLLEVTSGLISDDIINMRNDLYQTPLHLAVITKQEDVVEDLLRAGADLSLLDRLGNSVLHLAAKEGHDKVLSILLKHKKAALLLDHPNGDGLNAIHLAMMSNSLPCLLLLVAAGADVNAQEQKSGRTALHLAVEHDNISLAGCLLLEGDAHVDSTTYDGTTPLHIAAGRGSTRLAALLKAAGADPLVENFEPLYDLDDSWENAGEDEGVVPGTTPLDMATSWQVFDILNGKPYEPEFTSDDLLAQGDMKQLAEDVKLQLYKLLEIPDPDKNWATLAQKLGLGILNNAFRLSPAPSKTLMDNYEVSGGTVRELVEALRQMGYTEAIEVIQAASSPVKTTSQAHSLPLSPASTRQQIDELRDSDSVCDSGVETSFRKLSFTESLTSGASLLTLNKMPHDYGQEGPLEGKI
Nuclear factor NF-kappa-B complex (Homo sapiens), sequence (Q00653 whole entry, looked up): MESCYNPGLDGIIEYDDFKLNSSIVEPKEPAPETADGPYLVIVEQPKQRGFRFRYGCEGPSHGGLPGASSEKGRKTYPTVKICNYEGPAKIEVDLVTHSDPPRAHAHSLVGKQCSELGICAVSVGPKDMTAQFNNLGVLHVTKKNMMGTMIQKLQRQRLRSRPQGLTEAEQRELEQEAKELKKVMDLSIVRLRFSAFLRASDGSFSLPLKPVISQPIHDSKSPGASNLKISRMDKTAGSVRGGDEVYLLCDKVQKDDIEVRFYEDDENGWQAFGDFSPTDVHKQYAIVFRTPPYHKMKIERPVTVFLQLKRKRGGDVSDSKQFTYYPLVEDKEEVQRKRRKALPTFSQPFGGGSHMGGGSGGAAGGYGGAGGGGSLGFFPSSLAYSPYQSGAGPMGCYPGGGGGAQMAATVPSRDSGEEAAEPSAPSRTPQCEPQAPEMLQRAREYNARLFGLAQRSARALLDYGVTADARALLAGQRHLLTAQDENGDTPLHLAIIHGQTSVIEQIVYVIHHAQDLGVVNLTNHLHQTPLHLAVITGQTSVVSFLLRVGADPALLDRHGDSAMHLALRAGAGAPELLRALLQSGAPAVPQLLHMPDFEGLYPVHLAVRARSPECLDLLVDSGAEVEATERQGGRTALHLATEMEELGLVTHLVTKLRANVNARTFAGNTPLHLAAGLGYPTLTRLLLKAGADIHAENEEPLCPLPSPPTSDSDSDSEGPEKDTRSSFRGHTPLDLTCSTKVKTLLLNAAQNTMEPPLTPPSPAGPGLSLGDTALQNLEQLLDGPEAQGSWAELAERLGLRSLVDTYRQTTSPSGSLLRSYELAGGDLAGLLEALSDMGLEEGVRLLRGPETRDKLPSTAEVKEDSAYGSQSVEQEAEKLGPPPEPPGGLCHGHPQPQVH
Nuclear factor NF-kappa-B complex (Homo sapiens), sequence (Q04206 whole entry, looked up): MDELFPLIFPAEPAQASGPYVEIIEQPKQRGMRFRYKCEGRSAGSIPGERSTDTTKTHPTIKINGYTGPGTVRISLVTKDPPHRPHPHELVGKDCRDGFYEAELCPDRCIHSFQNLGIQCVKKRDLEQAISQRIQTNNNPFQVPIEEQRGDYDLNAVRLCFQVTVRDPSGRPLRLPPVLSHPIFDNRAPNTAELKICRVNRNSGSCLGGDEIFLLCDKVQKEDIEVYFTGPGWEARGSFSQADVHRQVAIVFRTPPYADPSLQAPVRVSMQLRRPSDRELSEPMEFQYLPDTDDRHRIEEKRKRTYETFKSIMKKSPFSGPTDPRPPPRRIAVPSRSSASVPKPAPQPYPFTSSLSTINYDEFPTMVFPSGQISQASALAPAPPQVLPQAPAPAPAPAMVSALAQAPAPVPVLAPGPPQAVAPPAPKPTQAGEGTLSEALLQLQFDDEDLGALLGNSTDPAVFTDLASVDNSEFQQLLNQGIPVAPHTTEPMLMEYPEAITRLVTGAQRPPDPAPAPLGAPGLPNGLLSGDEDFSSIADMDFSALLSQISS

Cc1c(Cl)cccc1Nc1ccc(F)cc1C(=O)NCc1ccc(O)c(O)c1
active: Activity (HGC-27 [1]) | Activity (RAW264.7 [2]) | Activity (RKO [3]) | Activity (RAW264.7 [4]) | Activity (HGC-27 [7]) Dde | Activity (HGC-27 [8]) | inhibition [9] | Activity (CT26.WT [10]) | Activity (RKO [14]) Dde | Activity (RKO [15]) | Activity (RKO [16]) | Activity (HGC-27 [18]) | Activity (RKO [19]) | Activity (CT26.WT [20]) | Activity (RKO [21]) | Activity (CT26.WT [22]) | Activity (HGC-27 [24])
4.71 µM: IC50 (HGC-27 [23])
45.4%: inhibition [11]
55.24%: Activity (RKO [25])
>80%: Activity (HGC-27 [17])
33.77%: Activity (RKO [6])
Non-Toxic: Activity [5] | Activity [12] | Activity [13]
4.42 µM: IC50 (DNA topoisomerase 1)
